Experimental findings from ChEMBL document CHEMBL5579840, “Optimization of diastereomeric dihydropyridines as antimalarials” (Eur J Med Chem, 2024) are described below.

Data set [1] deals with Plasmodium berghei. Description: Antiplasmodial activity against Plasmodium berghei KBG-173 infected in male mouse assessed as inhibition of parasitemia at 50 mg/kg, po administered as single dose on day 1 post exposure and measured on day 3 post exposure relative to control. The data set is classed as functional. As to conditions: KBG-173, 72 h, time 3 day.
Data set [2] deals with Plasmodium falciparum. The experiment in a line: Antimalarial activity against chloroquine-sensitive Plasmodium falciparum 3D7 infected in erythroctes incubated for 72 hrs by SYBR green 1 based spectrofluorometer. It counts as functional, organism-based, Erythrocyte. As to conditions: erythrocyte.
The subject of data set [3] is Plasmodium falciparum. The experiment in a line: Antimalarial activity against chloroquine-resistant Plasmodium falciparum K1 infected in erythroctes incubated for 72 hrs by SYBR green 1 based spectrofluorometer. The data set is classed as functional, organism-based, Erythrocyte.
The subject of data set [4] is Plasmodium berghei. The experiment in a line: Antiplasmodial activity against Plasmodium berghei KBG-173 infected in male mouse assessed as inhibition of parasitemia at 50 mg/kg, po administered as single dose on day 1 post exposure and measured on day 6 post exposure relative to control. As to conditions: KBG-173, 72 h, time 3 day. The data set is classed as functional.

Data set [5] is described as follows: Cytotoxicity against mouse J774.A1 cells. The data set is classed as toxicity, cell-based.

SMILES strings stand for the structures.

The term inhibition in vivo denotes the share of the control response that was lost under treatment. By EC50 is commonly meant the midpoint of the concentration-response curve. A low value points to an effect from little substance. `CCOC(=O)C1=C(C)NC2=C(C(=O)OC(c3ccc(OC)c(OC)c3)C2)C1c1ccccc1Cl` (stereo in doubt; 3B): the figures for the inhibition in vivo at 50 mg/kg with Plasmodium berghei [1] and in the data set on Plasmodium berghei [4] were 100% and 77.6%, respectively. Moreover, the EC50 in the data set with Plasmodium falciparum [2] is 260 nM; in the data set on Plasmodium falciparum [3] (erythrocyte), 53.9 nM.
Consider `CCOC(=O)C1=C(C)NC2=C(C(=O)CC(c3ccc(OC)c(OC)c3)C2)C1c1ccc(Cl)cc1` (stereo in doubt; 36A), for which the EC50 in data set [5] is greater than 20000 nM; in the data set on Plasmodium falciparum [2], 264 nM; with Plasmodium falciparum [3] (erythrocyte), 221 nM.
As for `CCOC(=O)C1=C(C)NC2=C(C(=O)CC(c3ccc(OC)c(OC)c3)C2)C1c1ccc(Cl)cc1C` (stereo in doubt; 37A), the EC50 was greater than 20000 nM in data set [5], 94 nM in the data set on Plasmodium falciparum [2] and 82.6 nM with Plasmodium falciparum [3] (erythrocyte).
Turning to `CCOC(=O)C1=C(C)NC2=C(C(=O)CC(c3ccc(OC)c(OC)c3)C2)C1c1ccc(Cl)cc1C` (stereo in doubt; 37B), the inhibition in vivo at 50 mg/kg in the data set with Plasmodium berghei [1] and with Plasmodium berghei [4] was less than 10% in each case. Further, the EC50 with Plasmodium falciparum [2] was 14.5 nM; with Plasmodium falciparum [3] (erythrocyte) it was 15.9 nM.
`CCOC(=O)C1=C(C)NC2=C(C(=O)OC(c3ccc(OC)c(OC)c3)C2)C1c1ccc(Cl)cc1C` (stereo in doubt; 38A): the EC50 is greater than 20000 nM in data set [5], greater than 4700 nM in the data set with Plasmodium falciparum [2] and 992 nM in the data set on Plasmodium falciparum [3] (erythrocyte).
As for `CCOC(=O)C1=C(C)NC2=C(C(=O)OC(c3ccc(OC)c(OC)c3)C2)C1c1ccc(Cl)cc1C` (stereo in doubt; 38B), the inhibition in vivo at 50 mg/kg with Plasmodium berghei [1] and with Plasmodium berghei [4] was less than 10% in each case. Besides, the EC50 in the data set on Plasmodium falciparum [2] was 10.6 nM; in the data set with Plasmodium falciparum [3] (erythrocyte) it was 29.1 nM.
In the case of `CCOC(=O)C1=C(C)NC2=C(C(=O)CC(c3ccc(Cl)c(OC)c3)C2)C1c1ccccc1Cl` (stereo in doubt; 39A), the figures for the EC50 (in data set [5]; in the data set on Plasmodium falciparum [2]; in the data set on Plasmodium falciparum [3] (erythrocyte)) were greater than 20000 nM, 630 nM and 397 nM, respectively.
With `CCOC(=O)C1=C(C)NC2=C(C(=O)CC(c3ccc(Cl)c(OC)c3)C2)C1c1ccccc1Cl` (stereo in doubt; 39B), the inhibition in vivo at 50 mg/kg with Plasmodium berghei [1] and in the data set with Plasmodium berghei [4] was less than 10% in each case. For the same compound, the EC50 with Plasmodium falciparum [2] amounted to 18.5 nM; in the data set on Plasmodium falciparum [3] (erythrocyte) it was 22.3 nM.
`CCOC(=O)C1=C(C)NC2=C(C(=O)OC(c3ccc(Cl)c(OC)c3)C2)C1c1ccccc1Cl` (stereo in doubt; 40A): the figures for the concentration for a half-maximal effect (EC50) (in data set [5]; with Plasmodium falciparum [2]; in the data set with Plasmodium falciparum [3] (erythrocyte)) were greater than 20000 nM, greater than 7700 nM and 2870 nM, respectively.
For `CCOC(=O)C1=C(C)NC2=C(C(=O)OC(c3ccc(Cl)c(OC)c3)C2)C1c1ccccc1Cl` (stereo in doubt; 40B), the figures for the inhibition in vivo at 50 mg/kg in the data set on Plasmodium berghei [1] and in the data set with Plasmodium berghei [4] were 66% and less than 10%, respectively. The EC50 in the data set with Plasmodium falciparum [2] amounted to 135 nM; in the data set with Plasmodium falciparum [3] (erythrocyte) it was 217 nM.
As for `CCOC(=O)C1=C(C)NC2=C(C(=O)CC(c3ccc(Cl)c(OC)c3)C2)C1c1ccc(Cl)cc1C` (stereo in doubt; 41A), the figures for the concentration giving a half-maximal response (EC50) (in data set [5]; in the data set with Plasmodium falciparum [2]; in the data set with Plasmodium falciparum [3] (erythrocyte)) were greater than 20000 nM, 550 nM and 385 nM, respectively.
`CCOC(=O)C1=C(C)NC2=C(C(=O)CC(c3ccc(Cl)c(OC)c3)C2)C1c1ccc(Cl)cc1C` (stereo in doubt; 41B): the inhibition in vivo at 50 mg/kg with Plasmodium berghei [1] and with Plasmodium berghei [4] was less than 10% each time. In addition, the EC50 is 9.4 nM in the data set with Plasmodium falciparum [2] and 9.7 nM with Plasmodium falciparum [3] (erythrocyte).
With `CCOC(=O)C1=C(C)NC2=C(C(=O)OC(c3ccc(Cl)c(OC)c3)C2)C1c1ccc(Cl)cc1C` (stereo in doubt; 42A), the results for the EC50 (in data set [5]; in the data set on Plasmodium falciparum [2]; with Plasmodium falciparum [3] (erythrocyte)) were greater than 20000 nM, greater than 13000 nM and greater than 13000 nM, respectively.
For `CCOC(=O)C1=C(C)NC2=C(C(=O)OC(c3ccc(Cl)c(OC)c3)C2)C1c1ccc(Cl)cc1C` (stereo in doubt; 42B), the inhibition in vivo at 50 mg/kg worked out at 34% with Plasmodium berghei [1] and 5.83% with Plasmodium berghei [4]. Further, the half-maximal effective concentration (EC50) was 58 nM in the data set on Plasmodium falciparum [2] and 38.4 nM in the data set on Plasmodium falciparum [3] (erythrocyte).
In the case of `CCCC1=C(C(=O)OCC)C(c2ccccc2Cl)C2=C(CC(c3ccc(OC)c(OC)c3)CC2=O)N1` (stereo in doubt; 43A), the EC50 in data set [5] is greater than 20000 nM; in the data set with Plasmodium falciparum [2], 28.6 nM; in the data set on Plasmodium falciparum [3] (erythrocyte), 26.5 nM.
On the same counts, the results for `CCCC1=C(C(=O)OCC)C(c2ccc(Cl)cc2C)C2=C(CC(c3ccc(OC)c(OC)c3)CC2=O)N1` (stereo in doubt; 44A) are greater than 20000 nM, 98.3 nM and 82.9 nM.
For the compound `CCCC1=C(C(=O)OCC)C(c2ccc(Cl)cc2C)C2=C(CC(c3ccc(OC)c(OC)c3)CC2=O)N1` (stereo in doubt; 44B), the values for the inhibition in vivo at 50 mg/kg with Plasmodium berghei [1] and with Plasmodium berghei [4] were 34% and 6.76%, respectively. Moreover, the EC50 with Plasmodium falciparum [2] stood at 3.4 nM; in the data set on Plasmodium falciparum [3] (erythrocyte), 11.1 nM.
Turning to `CCCC1=C(C(=O)OCC)C(c2ccc(Cl)cc2C)C2=C(CC(c3ccc(OC)c(OC)c3)OC2=O)N1` (stereo in doubt; 45A), the EC50 was greater than 20000 nM in data set [5], 148 nM with Plasmodium falciparum [2] and 102 nM with Plasmodium falciparum [3] (erythrocyte).
In the case of `CCCC1=C(C(=O)OCC)C(c2ccc(Cl)cc2C)C2=C(CC(c3ccc(OC)c(OC)c3)OC2=O)N1` (stereo in doubt; 45B), the inhibition in vivo at 50 mg/kg in the data set with Plasmodium berghei [1] and in the data set with Plasmodium berghei [4] was less than 10% each time. For the same compound, the EC50 is 5.1 nM in the data set on Plasmodium falciparum [2] and 3.9 nM in the data set on Plasmodium falciparum [3] (erythrocyte).
Turning to `CCCC1=C(C(=O)OCC)C(c2ccc(Cl)cc2C)C2=C(CC(c3ccc(Cl)c(OC)c3)CC2=O)N1` (stereo in doubt; 46A), the EC50 in data set [5] is greater than 20000 nM; in the data set with Plasmodium falciparum [2], 319 nM; with Plasmodium falciparum [3] (erythrocyte) it was 244 nM.
In the case of `CCCC1=C(C(=O)OCC)C(c2ccc(Cl)cc2C)C2=C(CC(c3ccc(Cl)c(OC)c3)CC2=O)N1` (stereo in doubt; 46B), the inhibition in vivo at 50 mg/kg in the data set on Plasmodium berghei [1] and with Plasmodium berghei [4] was less than 10% each time. Besides, the results for the EC50 in the data set on Plasmodium falciparum [2] and in the data set with Plasmodium falciparum [3] (erythrocyte) were 10.4 nM and 19.8 nM, respectively.
Take `CCCC1=C(C(=O)OCC)C(c2ccc(Cl)cc2C)C2=C(CC(c3ccc(Cl)c(OC)c3)OC2=O)N1` (stereo in doubt; 47B): the inhibition in vivo at 50 mg/kg in the data set with Plasmodium berghei [1] and with Plasmodium berghei [4] was less than 10% each time. The EC50 amounted to 22.7 nM in the data set with Plasmodium falciparum [2] and 21.5 nM in the data set with Plasmodium falciparum [3] (erythrocyte).
In the case of `CCCC1=C(C(=O)OCC)C(c2ccc(Cl)cc2C)C2=C(CC(c3cc(OC)ccc3OC)CC2=O)N1` (stereo in doubt; 48A), the EC50 in data set [5] was greater than 20000 nM; in the data set with Plasmodium falciparum [2], 542 nM; with Plasmodium falciparum [3] (erythrocyte), 228 nM.
On the same counts, the results for `COCC1=C(C(=O)OC)C(c2ccc(Cl)cc2C)C2=C(CC(c3ccc(OC)c(OC)c3)CC2=O)N1` (stereo in doubt; 51A) are greater than 20000 nM, 39.6 nM and 21.6 nM.
`CCOC(=O)C1=C(C)NC2=C(C(=O)OC(c3cc(OC)c(OC)c(OC)c3)C2)C1c1ccccc1Cl` (stereo in doubt; 54A): the EC50 in data set [5] is greater than 20000 nM; with Plasmodium falciparum [2], 322 nM; in the data set with Plasmodium falciparum [3] (erythrocyte), 315 nM.
`COCC1=C(C(=O)OC)C(c2ccc(Cl)cc2)C2=C(CC(c3cc(OC)c(OC)c(OC)c3)OC2=O)N1` (stereo in doubt; 56A): the EC50 in data set [5] is greater than 20000 nM; in the data set on Plasmodium falciparum [2], 61 nM; in the data set with Plasmodium falciparum [3] (Plasmodium falciparum, K1, Erythrocyte, 72 h) it was 62.4 nM.
With `CCN(CC)Cc1cc(Nc2ccnc3cc(Cl)ccc23)ccc1O` [AMODIAQUINE], the inhibition in vivo at 50 mg/kg with Plasmodium berghei [1] and in the data set with Plasmodium berghei [4] was 100% throughout.
